Several values for one entry are separate records, joined by “and”; a condition that tells them apart may be missing. Identical values can stand only once. Entries after “also recorded” stand apart in the source; their conditions may differ.

This is an account of results in article PMC6688182 (Peptides, 2017).

For assay [1], the system named is Ang-(1–7)-dependent vasorelaxation of the isolated renal artery. Kind of assay: Effect of K+ channel blockers on Ang-. Set-up: species or system male Wistar rat. As to conditions: glibenclamide 10^−5 M; PE 3 × 10^−7 M; mean ± SEM, N = 8; * P < 0.05 vs. control.
Assay [2] deals with anti-nociceptive actions of Ang-(1–7). Conditions: ref [13]; cited from earlier work.
Assay [3] relates to Ang-(1–7)-dependent vasorelaxation of the isolated renal artery. Nature of the assay: Effect of NOS, soluble guanylate cyclase and cyclooxygenase inhibitors on Ang-. Set-up: species or system male Wistar rat. As to conditions: for Effect of signaling inhibitor on Ang-(1–7)-induced vasorelaxation (in words) / Maximal vasorelaxation response to Ang-(1–7) in presence of L-NAME: L-NAME 10^−4 M; for Effect of signaling inhibitor on Ang-(1–7)-induced vasorelaxation (in words): indomethacin 10^−6 M; for Maximal vasorelaxation response to Ang-(1–7) in presence of L-NAME: N = 6.

The next assay has as its system mesenteric vessels. As to conditions: rat mesentery; ref [20]; cited from earlier work.
Another assay concerns blood pressure. As to conditions: ref [1],[16],[17]; cited from earlier work.
The next assay concerns afferent arterioles. As to conditions: ref [24]; cited from earlier work.
A further assay has as its system SHR and WKY rats. Conditions: SHR and WKY rats following AT1 receptor blockade; ref [36]; cited from earlier work.
Another assay relates to bovine endothelial cells. As to conditions: cited from earlier work; for Effect on NO stimulation by Ang-(1–7) or AVE0991: bovine endothelial cells, ref [14],[37].
For assay [4], the system named is Ang-(1–7)-dependent vasorelaxation of the isolated renal artery. Kind of assay: Effect of angiotensin receptor antagonists on Ang-. Set-up: species or system male Wistar rat. Conditions: for Effect of receptor antagonist on Ang-(1–7)-induced vasorelaxation (in words): DALA, DPRO, Sarthran 10^−5 M, losartan, PD123319 10^−6 M, 20 min.
The next assay concerns aortic segments. Conditions: ref [28]; cited from earlier work.
The test system of the next assay is mesenteric artery. Conditions: ref [21]; cited from earlier work.
In the next assay the target is T1, AT2 receptor (Rattus norvegicus, UniProt P35351).
T1 sequence (P35351 1-363): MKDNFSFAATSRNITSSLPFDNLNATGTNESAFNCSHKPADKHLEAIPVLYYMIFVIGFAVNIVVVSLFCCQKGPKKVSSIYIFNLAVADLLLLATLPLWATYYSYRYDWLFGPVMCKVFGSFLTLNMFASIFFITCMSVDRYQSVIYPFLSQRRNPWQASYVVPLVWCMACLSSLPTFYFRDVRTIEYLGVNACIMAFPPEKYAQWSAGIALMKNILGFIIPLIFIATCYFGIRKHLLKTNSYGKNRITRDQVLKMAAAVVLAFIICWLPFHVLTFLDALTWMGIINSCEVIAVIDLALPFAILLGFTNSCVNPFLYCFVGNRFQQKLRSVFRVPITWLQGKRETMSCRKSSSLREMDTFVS
Kind of assay: Competition of 125I-Sarthran binding in AR42J pancreatic cell membranes. As to conditions: 0.2 nM 125I-Sarthran, antagonists up to 10^−5 M, n = 3.

For another assay, the system named is older WKY rats. As to conditions: 20 months, ref [5]; cited from earlier work.
In assay [5] the test system is Mas-related receptor MrgD. As to conditions: aortic rings; ref [19]; cited from earlier work.
Assay [6] deals with Ang-(1–7)-dependent vasorelaxation of the isolated renal artery. Nature of the assay: Effect of bradykinin B2 receptor antagonist on Ang-. Set-up: species or system male Wistar rat.
Assay [7] deals with blood flow in multiple vascular beds. Conditions: kidney, mesentery and skin; ref [27]; cited from earlier work.
In another assay the test system is AT2 and AT1 sites. As to conditions: ref [4],[30],[31],[35]; cited from earlier work.

In the case of `COc1ccc(Cl)cc1C(=O)NCCc1ccc(S(=O)(=O)NC(=O)NC2CCCCC2)cc1` [Glibenclamide], in assay [1], the “Maximal vasorelaxation response to Ang-(1–7) in presence of glibenclamide” value is 22.3 ± 2.3 ^* %. The “Effect on anti-nociceptive actions of Ang-(1–7)” value in [2] is “abolished the anti-nociceptive actions of Ang-(1–7)”.
On to `COc1ccc2c(c1)c(CC(=O)O)c(C)n2C(=O)c1ccc(Cl)cc1` [Indomethacin], for which the “Effect of signaling inhibitor on Ang-(1–7)-induced vasorelaxation (in words)” value in assay [3] (ODQ 10^−5 M) is on record as “failed to block the Ang-(1–7) response”. The “Effect on Ang-(1–7)-dependent dilation of mesenteric vessels” value (shortened to “Effect on Ang-(1–7)-dependent dilation”) in the assay on mesenteric vessels is “inhibition of the Ang-(1–7) vasorelaxant effects”. Further, the “Effect on blood pressure-lowering effects of Ang-(1–7)” value in the assay with blood pressure was “attenuated the blood pressure-lowering effects of the peptide”.
For the compound `CCc1nc2c(C)cc(C)nc2n1Cc1ccc(-c2ccccc2-c2nn[nH]n2)cc1` [L158809], the “Effect on Ang-(1–7)-induced vasodilation of renal afferent arterioles” value (“Effect on Ang-(1–7)-induced vasodilation” below) in the assay with afferent arterioles is recorded as “not reversed”.
For `COC(=O)[C@@H](N)CCCNC(N)=N[N+](=O)[O-]` [L-NAME, nitro-l-arginine methyl ester], the “Maximal vasorelaxation response to Ang-(1–7) in presence of L-NAME” value in assay [3] (Ang-(1–7) 10^−12 to 10^−6 M, PE 3 × 10^−7 M, mean ± SEM, * P < 0.05 vs. control) is given as 13.4 ± 2.0 ^* %; in assay [3] (Ang-(1–7) 10^−12 to 10^−6 M, PE 3 × 10^−7 M, mean ± SEM, * P < 0.05 vs. control, listed as LNAME), 13 ± 2%. Moreover, in assay [3] (ODQ 10^−5 M), the “Effect of signaling inhibitor on Ang-(1–7)-induced vasorelaxation (in words)” value is on record as “attenuated the Ang-(1–7) response”. The “Effect on depressor effects of Ang-(1–7)” value with SHR and WKY rats is “sensitive”. For the same compound, in the assay with bovine endothelial cells, the “Effect on NO stimulation by Ang-(1–7) or AVE0991” value (from here on “Effect on NO stimulation”) is “blocked”. Besides, the “Effect on Ang-(1–7)-dependent dilation” value in the assay on mesenteric vessels is on record as “inhibition of the Ang-(1–7) vasorelaxant effects”.
With `CCCCc1nc(Cl)c(CO)n1Cc1ccc(-c2ccccc2-c2nn[nH]n2)cc1` [Losartan], in assay [4], the “Maximal vasorelaxation response to Ang-(1–7) in presence of antagonist” value is given as 22 ± 6% and the “Effect of receptor antagonist on Ang-(1–7)-induced vasorelaxation (in words)” value (“Effect of receptor antagonist” below) is listed as “significantly attenuated”. Also, the “Effect on Ang-(1–7)-dependent relaxation of aortic segments” value (shortened to “Effect on Ang-(1–7)-dependent relaxation”) in the assay on aortic segments is on record as “no inhibitory effect”. Moreover, the “Effect on vasorelaxation of the mesenteric artery by Ang-(1–7)” value (“Effect on vasorelaxation” below) in the assay with mesenteric artery is reported as “blocked”.
On to `O=c1onc2cnc3ccccc3n12` [ODQ, 1H-[1,2,4] oxadiazolo-quinoxalin], for which the “Maximal vasorelaxation response to Ang-(1–7) in presence of ODQ” value in assay [3] (ODQ 10^−5 M, Ang-(1–7) 10^−12 to 10^−6 M, PE 3 × 10^−7 M, mean ± SEM, N = 8, * P < 0.05 vs. control) is 10 ± 2% and 10.0 ± 2.1 ^* %.
`Cc1cc(Cn2cnc3c2C[C@@H](C(=O)O)N(C(=O)C(c2ccccc2)c2ccccc2)C3)ccc1N(C)C` [PD123319]: the “Effect of receptor antagonist” value in assay [4] is “significantly attenuated”. The “Competition of 125I-Sarthran binding (in words)” value on AT2 receptor is listed as “essentially abolished binding”. In addition, the “Effect on Ang-(1–7)-dependent relaxation” value in the assay on aortic segments is listed as “no inhibitory effect”. Moreover, in the assay with mesenteric artery, the “Effect on vasorelaxation” value is given as “but not the AT2 antagonist PD123319”. For the same compound, the “Effect on Ang-(1–7)-induced vasodilation” value in the assay with afferent arterioles was “not reversed”. Further, in the assay with SHR and WKY rats, the “Effect on depressor effects of Ang-(1–7)” value is “abolished”. The “Effect on depressor actions of Ang-(1–7)” value in the assay with older WKY rats is given as “blocked the depressor actions of Ang-(1–7)”. In addition, in [5], the “Effect on the effects of [Ala^1]-Ang-(1–7)” value (“Effect on the effects” for short) is “abolished the effects of [Ala^1]-Ang-(1–7)”. The “Effect on NO stimulation” value in the assay on bovine endothelial cells is “blocked”.
As to `CCOc1nc2cccc(C(=O)O)c2n1Cc1ccc(-c2ccccc2-c2nnn[nH]2)cc1` [candesartan], the “Effect on vasorelaxation” value in the assay with mesenteric artery is “blocked”. Also, the “Effect on Ang-(1–7)-dependent NO release” value in the assay on bovine endothelial cells (ref [14]) is “attenuated Ang-(1–7)-dependent NO release”.
In the case of HOE140, the “Effect of B2 antagonist on Ang-(1–7)-induced vasorelaxation (in words)” value in [6] (HOE140 5 × 10^−8 M, alone or with L-NAME 10^−4 M) was “markedly inhibited the vasorelaxation to Ang-(1–7); also recorded: significantly attenuated”. For the same compound, in assay [6] (HOE140 5 × 10^−8 M, PE 3 × 10^−7 M, mean ± SEM, N = 9, * P < 0.05 vs. control 42.4 ± 5.8), the “Maximal vasorelaxation response to Ang-(1–7) in presence of HOE140” value is 14.0 ± 7.0 ^* %. For the same compound, the “Ang-(1–7)-induced relaxation (maximal response) in presence of HOE140” value in assay [6] (HOE140 10^−6 M as printed in the abstract, PE 3 × 10^−7 M, mean ± SEM) came out at 14 ± 7%. Besides, the “Effect on depressor effects of Ang-(1–7)” value in the assay on SHR and WKY rats is “sensitive”. Moreover, the “Effect on NO stimulation” value in the assay with bovine endothelial cells was “blocked”.
Take “[D-Alanine^7]-Ang-(1–7) [D-Ala^7-Ang-(1–7)]”: in [4], the “Effect of receptor antagonist” value is “significantly inhibited; also recorded: essentially abolished”. For the same compound, the “Effect on Ang-(1–7)-dependent relaxation” value in the assay with aortic segments is reported as “abolished”. In the assay with mesenteric artery, the “Effect on vasorelaxation” value is given as “blocked”. In the assay on afferent arterioles, the “Effect on Ang-(1–7)-induced vasodilation” value is “abolished”. Also, the “Effect on increase in blood flow by Ang-(1–7)” value in [7] is given as “abolished”. In the assay on older WKY rats, the “Effect on depressor actions of Ang-(1–7)” value is recorded as “blocked the depressor actions of Ang-(1–7)”. Moreover, the “Effect on the effects” value in assay [5] is “ineffective”. Also, the “Effect on NO stimulation” value in the assay with bovine endothelial cells was “blocked”. Also, the “Effect on Ang-(1–7)-dependent dilation” value with mesenteric vessels is recorded as “sensitivity to DALA blockade”. Moreover, in the assay with AT2 and AT1 sites, the “Action at AT2 and AT1 sites” value is “lack of actions at AT2 and AT1 sites”.
With “[D-Proline^7]-Ang-(1–7) [D-Pro^7-Ang-(1–7)]”, the “Effect of receptor antagonist” value in [4] was “significantly inhibited; also recorded: essentially abolished”. Moreover, in [5], the “Effect on the effects” value was “abolished the effects of [Ala^1]-Ang-(1–7)”. Besides, the “Action at AT2 and AT1 sites” value in the assay on AT2 and AT1 sites was “lack of actions at AT2 and AT1 sites”.
